Data from patent US20080103152A1, “Novel Diazabicyclononene Derivative” (Actelion Pharmaceuticals Ltd, priority 2004, published 2008).

Key:
recombinant human renin = biological target: T1, recombinant human renin (Homo sapiens, UniProt P00797); experiment: Primary renin inhibition assay: IC50 in buffer, 384 well MTP (Ang I measured by EIA); format: biochemical; details: human tetradecapeptide substrate, 37° C. for 3 h, read-out: IC50 of renin inhibition (Ang I decrease)
T1 sequence (P00797 67-406): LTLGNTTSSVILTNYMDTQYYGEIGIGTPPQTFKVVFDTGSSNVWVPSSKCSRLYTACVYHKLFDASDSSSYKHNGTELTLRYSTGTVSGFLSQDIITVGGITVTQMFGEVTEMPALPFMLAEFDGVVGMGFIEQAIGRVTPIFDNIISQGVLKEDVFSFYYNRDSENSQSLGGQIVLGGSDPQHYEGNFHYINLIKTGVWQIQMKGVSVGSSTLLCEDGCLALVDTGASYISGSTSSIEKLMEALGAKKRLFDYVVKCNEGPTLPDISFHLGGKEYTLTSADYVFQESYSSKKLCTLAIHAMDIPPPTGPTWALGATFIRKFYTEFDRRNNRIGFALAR
Procedure: 1. Enzyme Immuno Assay (EIA) to Estimate Ang I Accumulation and Renin Inhibition
1.1 Preparation of Ang I-BSA Conjugate
1.3 mg (1 μmol) of Ang I [1-10 (Bachem, H-1680)] and 17 mg (0.26 μmol) of BSA (Fluka, 05475) were dissolved in 4 mL of 0.1M phosphate buffer, pH 7.4, after which 2 mL of a 1:100 dilution of glutaraldehyde in H2O (Sigma G-5882) was added dropwise. The mixture was incubated overnight at 4° C., then dialyzed against 2 liters of 0.9% NaCl, twice for 4 h at rt, followed by dialysis against 2 liters of PBS 1× overnight at rt. The solution was then filtered with a Syringe filter, 0.45 μm (Nalgene, Cat. No. 194-2545). The conjugate can be stored in polypropylene tubes in 0.05% sodium azide at 4° C. for at least 12 months.
1.2 Preparation of BSA-Ang I Coated MTP […]
The renin assay was adapted from an assay described before (Fischli W. et al., Hypertension, 1991, 18:22-31) and consists of two steps: in the first step, recombinant human renin is incubated with its substrate (commercial human tetradecapeptide renin substrate) to create the product Angiotensin I (Ang I). In the second step, the accumulated Ang I is measured by an immunological assay (enzyme immuno assay, EIA). […]

[1] = system: double transgenic rats with human renin and human angiotensinogen; experiment: Hemodynamic measurements (telemetry method), mean arterial blood pressure; format: in vivo, rat; details: for blood pressure decrease (maximal decrease of mean arterial pressure versus control group): hypertensive female double transgenic rats
Procedure: Hemodynamic Measurements (Telemetry Method)
Animals—Female double transgenic rats with human renin and human angiotensinogen were purchased from RCC Ltd, Füllingsdorf, Switzerland. All animals were maintained under identical conditions and had free access to normal pelleted rat chow and water. Rats were initially treated with enalapril (1 mg/kg/day) during 2 months. After approximately two weeks following cessation of enalapril treatment the double transgenic rats become hypertensive and reach mean arterial blood pressures in the range of 160-170 mmHg.
Transmitter implantation—The rats were anaesthetised with a mixture of 90 mg/kg Ketamin-HCl (Ketavet, Parke-Davis, Berlin FRG) and 10 mg/kg xylazin (Rompun, Bayer, Leverkusen, FRG) i.p. The pressure transmitter was implanted under aseptic conditions into the peritoneal cavity with the sensing catheter placed in the descending aorta below the renal arteries pointing upstream. The transmitter was sutured to the abdominal musculature and the skin closed.
Telemetry-System—Telemetry units were obtained from Data Sciences (St. Paul, Minn.). […] The tip of the catheter was filled with a viscous gel that prevents blood reflux and was coated with an antithrombogenic film to inhibit thrombus formation. The implants (length=[…], diameter=1.2 cm) weighted 9 g and have a typical battery life of 6 months. A receiver platform (RPC-1, Data Sciences) connected the radio signal to digitized input that was sent to a dedicated personal computer (Compaq, deskpro). Arterial pressures were calibrated by using an input from an ambient-pressure reference (APR-1, Data Sciences). Systolic, mean and diastolic blood pressure was expressed in millimeter of mercury (mmHg).
[…] The effect of the test substance is expressed as maximal decrease of mean arterial pressure (MAP) in the treated group versus the control group.

O=C(C1=C(c2ccc(CCCOc3c(F)ccc(F)c3Cl)cc2)C[C@@H]2CNC[C@H]1N2)N(Cc1cccc(Cl)c1Cl)C1CC1 [Compound (I′), (1R,5S)-7-{4-[3-(2-Chloro-3,6-difluorophenoxy)propyl]phenyl}-3,9-diazabicyclo[3.3.1]non-6-ene-6-carboxylic acid cyclopropyl-(2,3-dichlorobenzyl)amide]
IC50 (recombinant human renin): 0.5 nM | activity in the animal model (in words) ([1]; oral gavage, double transgenic rats): active | blood pressure decrease (maximal decrease of mean arterial pressure versus control group) ([1]; single oral dose of 3 mg/kg): 13 mmHg | blood pressure decrease (maximal decrease of mean arterial pressure versus control group) ([1]; single oral dose of 10 mg/kg): 26 mmHg
